Experimental data taken from EP4692071A1, “PHOTOCHROMIC COMPOUND, NAPHTHOL DERIVATIVE, CURABLE COMPOSITION, OPTICAL ARTICLE, LENS, AND EYEGLASS” (TOKUYAMA CORPORATION, priority 2023, dated 2024).

Assays:
Assay type in all cases: physicochemical
[1] = 23°C color optical density (A23): absorbancy difference ε(240)-ε(0) after 240 s light irradiation at 23°C; conditions: 240 s irradiation; for 23°C color optical density (-): comparative compounds
Method in brief: (§1)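 Photochromic plastic lens irradiated 240 s at 23°C; colour density is ε(240)−ε(0) at λmax, measured with an instantaneous multichannel photodetector. Fading half-life is the time after irradiation stops for absorbance to fall to half that difference. Durability is A90/A0×100 after 90 h accelerated deterioration in a xenon weather meter.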

[2] = 23°C color fading half-life τ1/2 after 240 s light irradiation
Protocol: • [1] Maximum Absorption Wavelength (λmax): The maximum absorption wavelength after color development, measured using a spectrophotometer (instantaneous multichannel photodetector MCPD3000) manufactured by Otsuka Electronics Co., Ltd. was used as an indicator for the color tone during the color development. • [2] 23°C Color Optical Density (A23): A difference between an absorbancy measured after light irradiation at 23°C for 240 seconds {ε(240)} and an absorbancy without light irradiation ε(0) at the maximum absorption wavelength was used as an indicator for the color optical density. […] 35°C Color Optical Density (A35): A difference between an absorbancy measured after light irradiation at 35°C for 240 seconds {ε(240)} and an absorbancy without light irradiation ε(0) at the first and second absorption wavelengths was used as an indicator for the color optical density. […] 23°C color fading half-life [τ1/2 (sec.)]: A time required for the absorbancy of the sample at the maximum absorption wavelength to decrease to 1/2 of {ε(240)-ε(0)} when the light irradiation is terminated after the light irradiation at 23°C for 240 seconds, was used as an indicator for the color fading speed. The shorter this time, the higher the color fading speed. • [6] Residual rate (A90/A0×100): The obtained photochromic plastic lens was subjected to accelerated deterioration using a xenon weather meter X25 manufactured by Suga Test Instruments Co., Ltd. for 90 hours. Subsequently, the color optical density was evaluated before and after the test, then a color optical density before the test (A0) and a color optical density after the test (A90) were measured, and a ratio (A90/A0) was defined as a residual rate. The residual rate was used as an indicator for a color developing durability. The higher the residual rate, the higher the color developing durability.

[3] = High-temperature color development rate (A35/A23×100), temperature dependency; conditions: for Temperature change rate (%): comparative compounds, corresponds to A35/A23×100
Method in brief: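 Color optical density was taken as the absorbance after 240 seconds of light irradiation, ε(240), minus the absorbance without irradiation, ε(0), at the absorption maximum. It was measured at 23°C (A23) and at 35°C (A35), and the ratio A35/A23×100 served as the high-temperature color development rate, showing temperature dependency.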

[4] = Residual rate (A90/A0×100) after 90 h accelerated deterioration in xenon weather meter X25, color developing durability; conditions: for Residual rate (%): xenon weather meter 90 hours; for Residual rate: after 90 h accelerated deterioration
Method in brief: as §1

[5] = Maximum absorption wavelength (λmax) after color development, spectrophotometer MCPD3000; conditions: for Maximum absorption wavelength: after color development
Method in brief: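 Read-out: absorbance at λmax, multichannel photodetector spectrophotometer. Colour density = ε(240) − ε(0), 240 s light, 23°C. τ1/2 = time for ε(240) − ε(0) to halve after light off. Residual rate compares density before and after 90 h xenon weathering.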

[6] = 35°C color optical density (A35): absorbancy difference ε(240)-ε(0) after 240 s light irradiation at 35°C; conditions: 240 s irradiation; for 35°C color optical density (-): comparative compounds
Method in brief: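 A photochromic cured product was irradiated with light at 35°C for 240 seconds. The 35°C color optical density (A35) was the absorbancy after irradiation {ε(240)} minus the absorbancy without irradiation ε(0), read at the first and second absorption wavelengths. It served as an indicator of color optical density.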

[7] = photochromic laminate by coating method
[8] = photochromic laminate by coating method, 40 µm photochromic layer on thiourethane lens, 0.25 mmol compound per 100 g monomers
[9] = photochromic laminate by coating method, at 522 nm absorption maximum
[10] = photochromic laminate by coating method, at 615 nm absorption maximum
[11] = photochromic laminate prepared by coating method
[12] = photochromic laminate by coating method, absorption band at 463 nm
[13] = photochromic laminate by coating method, absorption band at 573 nm
[14] = photochromic laminate by coating method, absorption band at 469 nm
[15] = photochromic laminate by coating method, absorption band at 570 nm
[16] = photochromic laminate by coating method, absorption band at 449 nm
[17] = photochromic laminate by coating method, absorption band at 569 nm
[18] = photochromic laminate prepared by coating method, absorption band at 449 nm
[19] = photochromic laminate prepared by coating method, absorption band at 569 nm
[20] = binder sheet (binder method), urethaneurea resin photochromic layer between polycarbonate sheets, 0.25 mmol per 100 parts by mass resin

For `COCCCCC1(CCCCOC)c2ccccc2-c2c1c1c(c3cc(C)c(N(C)c4ccccc4)cc23)OC(c2ccc(C)cc2)(c2ccc(OC)cc2)C=C1` (stereo not shown) [Example 5 Formula (43)], the “A23 (-)” value ([1]; photochromic laminate by coating method, at the maximum absorption wavelength) was 1.19 -, the “23°C color fading half-life” value [2] was 1.5 min and the “A35/A23 *100 (%)” value [3, 7] was 66%. The “Residual rate (%)” value [4, 7] was 73%, the “Maximum absorption wavelength (nm)” value [5, 8] was 442 nm and the “A35 (-)” value [6, 7] was 0.79 -.

In the case of `CCCC1(CCC)c2ccccc2-c2c1c1c(c3cc(OC)c(N(c4ccccc4)c4ccccc4)cc23)OC(c2ccc(OC)cc2)(c2ccc(N3CCOCC3)cc2)C=C1` (stereo not shown) [Example 7 Formula (50)], the “A23 (-)” value ([1]; photochromic laminate by coating method, at the maximum absorption wavelength, at 522 nm absorption maximum) is reported as 1.19 -, the “A23 (-)” value ([1]; photochromic laminate by coating method, at the maximum absorption wavelength, at 615 nm absorption maximum) is reported as 1.14 - and the “23°C color fading half-life” value [2] is reported as 0.733 min. The “A35/A23 *100 (%)” value [3, 7] was 62%, the “Residual rate (%)” value [4, 9] was 77% and the “Residual rate (%)” value [4, 10] was 76%. The “Maximum absorption wavelength (nm)” value ([5]; photochromic laminate by coating method, 40 µm photochromic layer on thiourethane lens, 0.25 mmol compound per 100 g monomers, at 522 nm absorption maximum) was 522 nm, the “Maximum absorption wavelength (nm)” value ([5]; photochromic laminate by coating method, 40 µm photochromic layer on thiourethane lens, 0.25 mmol compound per 100 g monomers, at 615 nm absorption maximum) was 615 nm and the “A35 (-)” value [6, 9] was 0.74 -. The “A35 (-)” value [6, 10] was 0.71 -.

With `CCCOc1ccc(C2(c3ccc(OC)cc3)C=Cc3c4c(c5cc(N6CCc7ccccc76)c(C)cc5c3O2)-c2ccccc2C4(CCC)CCC)cc1` (stereo not shown) [Formula (31A)] the “23°C color fading half-life” value [2] was 1.05 min, the “A35/A23 *100” value [3, 11] was 65% and the Residual rate [4, 11] was 67%. It also gave a Maximum absorption wavelength [5, 11] of 520 nm.

With `CCCCC1(CCCC)c2cc(C(F)(F)F)ccc2-c2c1c1c(c3cc(C)c(N4CCc5ccccc54)cc23)OC(c2ccc(OC)cc2)(c2ccc(OC)c(C)c2)C=C1` (stereo not shown) [Formula (64A)] the “23°C color fading half-life” value [2] was 1.1 min, the “A35/A23 *100” value [3, 11] was 65% and the Residual rate [4, 11] was 64%. The Maximum absorption wavelength [5, 11] was 523 nm.

In the case of `CCCc1ccc(C2(c3ccc(OC)cc3)C=Cc3c4c(c5cc(N6CCc7ccccc76)c(OC)cc5c3O2)-c2ccc(-c3ccc(C(F)(F)F)cc3)cc2C4(CCOC)CCOC)cc1` (stereo not shown) [Formula (85A)], the “23°C color fading half-life” value [2] is reported as 0.933 min, the “A35/A23 *100” value [3, 11] is reported as 69% and the Residual rate [4, 11] is reported as 65%. The Maximum absorption wavelength [5, 11] was 530 nm.

In the case of `CCCCOc1ccc(C2(c3ccc(OCCCC)cc3)C=Cc3c4c(c5cc(NC(=O)c6ccccc6)c(OC)cc5c3O2)-c2ccccc2C4(C)C)cc1` [Formula (B), reference compound], the “23°C color optical density (-)” value [1, 12] is reported as 1.30 -, the “23°C color optical density (-)” value [1, 13] is reported as 0.90 - and the “Temperature change rate (%)” value [3, 7] is reported as 68%. For the same molecule, the “Residual rate (%)” value [4, 7] was 68%, the “Maximum absorption wavelength (nm)” value ([5]; photochromic laminate by coating method, 40 µm photochromic layer on thiourethane lens, 0.25 mmol compound per 100 g monomers, absorption band at 463 nm) was 463 nm and the “Maximum absorption wavelength (nm)” value ([5]; photochromic laminate by coating method, 40 µm photochromic layer on thiourethane lens, 0.25 mmol compound per 100 g monomers, absorption band at 573 nm) was 573 nm. For the same molecule, the “35°C color optical density (-)” value [6, 12] was 0.88 - and the “35°C color optical density (-)” value [6, 13] was 0.62 -.

For `COc1ccc(C2(c3ccc(OC)cc3)C=Cc3c4c(c5cc(Sc6c(C)cccc6C)c(OC)cc5c3O2)-c2ccccc2C4(C)C)cc1` [Formula (C), reference compound], the “23°C color optical density (-)” value [1, 14] was 1.20 -, the “23°C color optical density (-)” value [1, 15] was 0.77 - and the “Temperature change rate (%)” value [3, 7] was 65%. The “Residual rate (%)” value [4, 7] was 73%, the “Maximum absorption wavelength (nm)” value ([5]; photochromic laminate by coating method, 40 µm photochromic layer on thiourethane lens, 0.25 mmol compound per 100 g monomers, absorption band at 469 nm) was 469 nm and the “Maximum absorption wavelength (nm)” value ([5]; photochromic laminate by coating method, 40 µm photochromic layer on thiourethane lens, 0.25 mmol compound per 100 g monomers, absorption band at 570 nm) was 570 nm. The “35°C color optical density (-)” value [6, 14] was 0.78 - and the “35°C color optical density (-)” value [6, 15] was 0.50 -.

For `COc1ccc(C2(c3ccc(OC)cc3)C=Cc3c4c(c5ccc(OC)cc5c3O2)-c2ccccc2C4(C)C)cc1` [Formula (D), reference compound], the “23°C color optical density (-)” value [1, 16] was 0.69 -, the “23°C color optical density (-)” value [1, 17] was 0.87 - and the “Temperature change rate (%)” value [3, 7] was 63%. The “A35/A23 *100” value [3, 18] was 64%, the “A35/A23 *100” value [3, 19] was 63% and the “Residual rate (%)” value [4, 16] was 74%. The “Residual rate (%)” value [4, 17] was 73%, the Residual rate [4, 18] was 74% and the Residual rate [4, 19] was 73%. For the same molecule, the “Maximum absorption wavelength (nm)” value ([5]; photochromic laminate by coating method, 40 µm photochromic layer on thiourethane lens, 0.25 mmol compound per 100 g monomers, absorption band at 449 nm) was 449 nm, the “Maximum absorption wavelength (nm)” value ([5]; photochromic laminate by coating method, 40 µm photochromic layer on thiourethane lens, 0.25 mmol compound per 100 g monomers, absorption band at 569 nm) was 569 nm and the Maximum absorption wavelength [5, 18] was 449 nm. For the same molecule, the Maximum absorption wavelength [5, 19] was 569 nm, the “35°C color optical density (-)” value [6, 16] was 0.44 - and the “35°C color optical density (-)” value [6, 17] was 0.55 -.

With `COc1ccc(C2(c3ccc(OC)cc3)C=Cc3c4c(c5cc(N6CCCCC6)c(OC)cc5c3O2)-c2ccccc2C4(C)C)cc1` [Formula (E), reference compound] the “A23 (-)” value ([1]; binder sheet (binder method)) was 1.85 -, the “23°C color optical density (-)” value [1, 7] was 1.81 - and the “A35/A23 *100” value ([3]; binder sheet (binder method)) was 70%. For the same molecule, the “A35/A23 *100 (%)” value ([3]; binder sheet (binder method)) was 70%, the “Temperature change rate (%)” value [3, 7] was 71% and the “A35/A23 *100” value [3, 11] was 71%. For the same molecule, the Residual rate ([4]; binder sheet (binder method)) was 68%, the “Residual rate (%)” value ([4]; binder sheet (binder method)) was 68% and the “Residual rate (%)” value [4, 7] was 51%. The Residual rate [4, 11] was 51%, the “Maximum absorption wavelength (nm)” value [5, 20] was 481 nm and the Maximum absorption wavelength ([5]; binder sheet (binder method)) was 481 nm. For the same molecule, the “Maximum absorption wavelength (nm)” value [5, 8] was 481 nm, the Maximum absorption wavelength [5, 11] was 481 nm and the “A35 (-)” value ([6]; binder sheet (binder method)) was 1.30 -. For the same molecule, the “35°C color optical density (-)” value [6, 7] was 1.28 -.

For `COc1ccc(C2(c3ccc(OC)cc3)C=Cc3c4c(c5cc(N6CCc7ccccc7C6)c(OC)cc5c3O2)-c2ccccc2C4(C)C)cc1` [Formula (F), reference compound], the “A23 (-)” value ([1]; binder sheet (binder method)) was 1.85 -, the “23°C color optical density (-)” value [1, 7] was 1.81 - and the “A35/A23 *100 (%)” value ([3]; binder sheet (binder method)) was 70%. For the same molecule, the “Temperature change rate (%)” value [3, 7] was 71%, the “Residual rate (%)” value ([4]; binder sheet (binder method)) was 64% and the “Residual rate (%)” value [4, 7] was 50%. For the same molecule, the “Maximum absorption wavelength (nm)” value [5, 20] was 481 nm, the “Maximum absorption wavelength (nm)” value [5, 8] was 481 nm and the “A35 (-)” value ([6]; binder sheet (binder method)) was 1.30 -. The “35°C color optical density (-)” value [6, 7] was 1.28 -.
